Experimental data taken from the supplement of paper PMC11061612.

Assays:
Olaparib = compound: O=C(c1cc(Cc2n[nH]c(=O)c3ccccc23)ccc1F)N1CCN(C(=O)C2CC2)CC1 [Olaparib]; conditions: max 10 µM
In short: (§1)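 Viability was measured with CellTiter-Glo 2.0 luminescence after 72 hours of dosing at a final DMSO of typically 0.2%, and scaled between blank-well and DMSO-well means. Beforehand, cancer cell lines sat 24 hours at 37°C and 5% CO2 in 1536-well plates in 7.5 μl DMEM/F12 or RPMI with 10% FBS. A non-linear mixed effects model fitted two-parameter logistic curves to the dose responses. The single-agent IC50 comes from these fits.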

Selumetinib = compound: Cn1cnc2c(F)c(Nc3ccc(Br)cc3Cl)c(C(=O)NOCCO)cc21 [Selumetinib]; conditions: max 10 µM
In short: as §1

AZD2811 = compound: CCN(CCO)CCCOc1ccc2c(Nc3cc(CC(=O)Nc4cccc(F)c4)[nH]n3)ncnc2c1 [AZD2811]; conditions: max 1 µM
In short: as §1

SG3199 = compound: CC1=CN2[C@@H](C1)C=NC3=CC(=C(C=C3C2=O)OC)OCCCCCOC4=C(C=C5C(=C4)N=C[C@@H]6CC(=CN6C5=O)C)OC [SG3199]; conditions: max 0.001 µM
In short: as §1

Trametinib = compound: CC(=O)Nc1cccc(-n2c(=O)n(C3CC3)c(=O)c3c(Nc4ccc(I)cc4F)n(C)c(=O)c(C)c32)c1 [Trametinib]; conditions: max 1 µM
In short: as §1

Palbociclib = compound: CC(=O)c1c(C)c2cnc(Nc3ccc(N4CCNCC4)cn3)nc2n(C2CCCC2)c1=O [Palbociclib]; conditions: max 10 µM
In short: as §1

Doxorubicin = compound: COc1cccc2c1C(=O)c1c(O)c3c(c(O)c1C2=O)C[C@@](O)(C(=O)CO)C[C@@H]3O[C@H]1C[C@H](N)[C@H](O)[C@H](C)O1 [Doxorubicin]; conditions: max 1 µM
In short: as §1

Taselisib = compound: Cc1nc(-c2cn3c(n2)-c2ccc(-c4cnn(C(C)(C)C(N)=O)c4)cc2OCC3)n(C(C)C)n1 [Taselisib]; conditions: max 10 µM
In short: as §1

AZD6738 = compound: C[C@@H]1COCCN1C2=NC(=NC(=C2)C3(CC3)[S@](=N)(=O)C)C4=C5C=CNC5=NC=C4 [AZD6738]; conditions: max 10 µM
In short: as §1

AZD0156 = compound: CN(C)CCCOc1ccc(-c2ccc3ncc4c(c3c2)n(C2CCOCC2)c(=O)n4C)cn1 [AZD0156]; conditions: max 3 µM
In short: as §1

Prexasertib = compound: COc1cccc(OCCCN)c1-c1cc(Nc2cnc(C#N)cn2)n[nH]1 [Prexasertib]; conditions: max 1 µM
In short: as §1

Venetoclax = compound: CC1(C)CCC(CN2CCN(c3ccc(C(=O)NS(=O)(=O)c4ccc(NCC5CCOCC5)c([N+](=O)[O-])c4)c(Oc4cnc5[nH]ccc5c4)c3)CC2)=C(c2ccc(Cl)cc2)C1 [Venetoclax]; conditions: max 1 µM
In short: as §1

AZD4320 = compound: CN(CC[C@H](CSC1=CC=CC=C1)NC2=C(C=C(C=C2)S(=O)(=O)NC(=O)C3=CC=C(C=C3)N4CCC(CC4)[C@H](C5=CC=CC=C5C6=CC=C(C=C6)Cl)O)S(=O)(=O)C(F)(F)F)CCO [AZD4320]; conditions: max 1 µM
In short: as §1

AZD5991 = compound: Cc1c2c(nn1C)CSCc1cc(n(C)n1)CSc1cc(c3ccccc3c1)OCCCc1c(C(=O)O)n(C)c3c-2c(Cl)ccc13 [AZD5991]; conditions: max 1 µM
In short: as §1

SN-38 = compound: CCc1c2c(nc3ccc(O)cc13)-c1cc3c(c(=O)n1C2)COC(=O)[C@]3(O)CC [SN-38]; conditions: max 0.3 µM
In short: as §1

AZD1775 = compound: C=CCn1c(=O)c2cnc(Nc3ccc(N4CCN(C)CC4)cc3)nc2n1-c1cccc(C(C)(C)O)n1 [AZD1775]; conditions: max 3 µM
In short: as §1

Dasatinib = compound: CC1=C(C(=CC=C1)Cl)NC(=O)C2=CN=C(S2)NC3=CC(=NC(=N3)C)N4CCN(CC4)CCO [Dasatinib]; conditions: max 2 µM
In short: as §1

Alisertib = compound: COc1cc(Nc2ncc3c(n2)-c2ccc(Cl)cc2C(c2c(F)cccc2OC)=NC3)ccc1C(=O)O [Alisertib]; conditions: max 10 µM
In short: as §1

AZD1390 = compound: CC(C)n1c(=O)n(C)c2cnc3cc(F)c(-c4ccc(OCCCN5CCCCC5)nc4)cc3c21 [AZD1390]; conditions: max 0.3 µM
In short: as §1

Crizotinib = compound: C[C@@H](Oc1cc(-c2cnn(C3CCNCC3)c2)cnc1N)c1c(Cl)ccc(F)c1Cl [Crizotinib]; conditions: max 10 µM
In short: as §1

AZD5153 = compound: COc1nnc2ccc(N3CCC(c4ccc(OCCN5CCN(C)C(=O)[C@H]5C)cc4)CC3)nn12 [AZD5153]; conditions: max 1 µM
In short: as §1

Capivasertib = compound: C1CN(CCC1(C(=O)N[C@@H](CCO)C2=CC=C(C=C2)Cl)N)C3=NC=NC4=C3C=CN4 [Capivasertib]; conditions: max 10 µM
In short: as §1

Savolitinib = compound: C[C@@H](c1ccc2nccn2c1)n1nnc2ncc(-c3cnn(C)c3)nc21 [Savolitinib]; conditions: max 1 µM
In short: as §1

AZD7648 = compound: Cc1cc2ncnn2cc1Nc1ncc2c(n1)n(C1CCOCC1)c(=O)n2C [AZD7648]; conditions: max 10 µM
In short: as §1

AZD8186 = compound: C[C@@H](Nc1cc(F)cc(F)c1)c1cc(C(=O)N(C)C)cc2c(=O)cc(N3CCOCC3)oc12 [AZD8186]; conditions: max 3 µM
In short: as §1

Gefitinib = compound: COc1cc2ncnc(Nc3ccc(F)c(Cl)c3)c2cc1OCCCN1CCOCC1 [Gefitinib]; conditions: max 10 µM
In short: as §1

Lapatinib = compound: CS(=O)(=O)CCNCc1ccc(-c2ccc3ncnc(Nc4ccc(OCc5cccc(F)c5)c(Cl)c4)c3c2)o1 [Lapatinib]; conditions: max 10 µM
In short: as §1

MK-2206 = compound: NC1(c2ccc(-c3nc4ccn5c(=O)[nH]nc5c4cc3-c3ccccc3)cc2)CCC1 [MK-2206]; conditions: max 10 µM
In short: as §1

Cell Line	IC50, cell viability 72 h (Olaparib)	IC50, cell viability 72 h (Selumetinib)	IC50, cell viability 72 h (AZD2811)	IC50, cell viability 72 h (SG3199)	IC50, cell viability 72 h (Trametinib)	IC50, cell viability 72 h (Palbociclib)	IC50, cell viability 72 h (Doxorubicin)	IC50, cell viability 72 h (Taselisib)	IC50, cell viability 72 h (AZD6738)	IC50, cell viability 72 h (AZD0156)	IC50, cell viability 72 h (Prexasertib)	IC50, cell viability 72 h (Venetoclax)	IC50, cell viability 72 h (AZD4320)	IC50, cell viability 72 h (AZD5991)	IC50, cell viability 72 h (SN-38)	IC50, cell viability 72 h (AZD1775)	IC50, cell viability 72 h (Dasatinib)	IC50, cell viability 72 h (Alisertib)	IC50, cell viability 72 h (AZD1390)	IC50, cell viability 72 h (Crizotinib)	IC50, cell viability 72 h (AZD5153)	IC50, cell viability 72 h (Capivasertib)	IC50, cell viability 72 h (Savolitinib)	IC50, cell viability 72 h (AZD7648)	IC50, cell viability 72 h (AZD8186)	IC50, cell viability 72 h (Gefitinib)	IC50, cell viability 72 h (Lapatinib)	IC50, cell viability 72 h (MK-2206)
HCC2998 (Colorectal Carcinoma)	> 10 µM	0.382 µM	> 1000 nM	> 1 nM	14.1 nM	> 10 µM	389 nM	5.39 µM	3.12 µM	> 3000 nM	18.8 nM	> 1000 nM	485 nM	259 nM	144 nM	981 nM	> 2000 nM	> 10000 nM	> 300 nM	> 10 µM	314 nM	> 10 µM	> 1000 nM	> 10 µM	> 3000 nM	> 10 µM	> 10 µM	–
Hey (Ovarian Carcinoma)	> 10 µM	3.04 µM	> 1000 nM	> 1 nM	59.8 nM	> 10 µM	398 nM	7.99 µM	6.18 µM	> 3000 nM	128 nM	> 1000 nM	> 1000 nM	> 1000 nM	32 nM	1200 nM	450 nM	1240 nM	> 300 nM	> 10 µM	476 nM	> 10 µM	> 1000 nM	> 10 µM	> 3000 nM	> 10 µM	> 10 µM	–
KOPN-8 (B-Lymphoblastic Leukemia)	6.85 µM	6.21 µM	37.7 nM	> 1 nM	36.9 nM	2.62 µM	106 nM	> 10 µM	0.725 µM	> 3000 nM	19.8 nM	50 nM	11 nM	43.4 nM	2.7 nM	314 nM	> 2000 nM	23.4 nM	> 300 nM	2.77 µM	28.5 nM	4.98 µM	> 1000 nM	> 10 µM	> 3000 nM	> 10 µM	> 10 µM	8.59 µM
